“And” between values parts separate entries of the source, which are not always exact repeats. Equal entries are not always repeated. “Also recorded” adds a separate entry of the source.
Test system: scopolamine-treated cynomolgus monkeys
Assay: Scopolamine-induced impairment of vsPAL task performance, treatment + scopolamine
Format: in vivo, cynomolgus monkeys (Macaca Fasicularis)
Experimental: Doses cited refer to the free base form of the compounds. […] All drugs were administered intramuscularly (i.m.) in a dosing volume of 0.1–0.2 ml/kg.
On days when compound testing occurred, approximately half the cohort received one dose and the remainder another dose of the same compound and therefore dose order was staggered between animals. With the exception of EVP-6124, all other compounds were tested in a single dose response study.
Cohen’s d values of >0.2, >0.5 and >0.8 are described using the conventions of small, medium, and large effects, respectively.

[1] = RG3487 0.1 mg/kg + scopolamine, individual animals, 0.1 mg/kg
[2] = RG3487 0.3 mg/kg + scopolamine, MEAN of 8 animals
[3] = RG3487 0.3 mg/kg + scopolamine, individual animals, 0.3 mg/kg
[4] = RG3487 1.0 mg/kg + scopolamine, MEAN of 8 animals
[5] = RG3487 1.0 mg/kg + scopolamine, individual animals, 1 mg/kg
[6] = all doses of the study, for EVP-6124 study (1)
[7] = compound 0.03 mg/kg i.m. + Scopolamine
[8] = compound 0.10 mg/kg i.m. + Scopolamine
[9] = compound 0.30 mg/kg i.m. + Scopolamine
[10] = compound 1.00 mg/kg i.m. + Scopolamine

## Cl.O=C(N[C@@H]1CN2CCC1CC2)c1n[nH]c2ccccc12 [RG3487, N-[(3S)-1-Azabicyclo[2.2.2]oct-3-yl]-1H-indazole-3-carboxamide HCl]
[1]
  Eventual Correct, 3 Stimuli: 100.0% and 80.0% and 70.0%
  Eventual Correct, 4 Stimuli: 50.0% and 16.7% and 80.0% and 70.0% and 40.0% and 11.1% and 100.0%
  Eventual Correct, Overall Mean % Correct: 83.3% and 65.6% and 93.3% and 90.0% and 80.0% and 63.7% and 62.2% and 100.0%
[2]
  % Completion: 74.7%
  Average Response Latency (Avg Rsp Lat): 2047.1 ms
  Initial Correct, 3 Stimuli: 42.5%
  Initial Correct, 4 Stimuli: 20.4%
  Initial Correct, Overall Mean % Correct: 48.9%
  Initial correct, 2 Stimuli: 83.8%
[3]
  % Completion: 48.2% and 79.1% and 98.4% and 87.1% and 95.1% and 24.7% and 100.0% and 65.1%
  Average Response Latency (Avg Rsp Lat): 1983.4 ms and 2543.8 ms and 1430.4 ms and 1376.1 ms and 2172.3 ms and 1933.4 ms and 2432.3 ms and 2505.1 ms
  Initial Correct, 3 Stimuli: 30.0% and 70.0% and 0.0% and 40.0%
  Initial Correct, 4 Stimuli: 0.0% and 12.5% and 30.0% and 10.0% and 60.0% and 20.0%
  Initial Correct, Overall Mean % Correct: 43.3% and 37.5% and 63.3% and 76.7% and 20.0% and 46.7% and 60.0%
  Initial correct, 2 Stimuli: 100.0% and 70.0% and 90.0% and 40.0%
[4]
  % Completion: 78.8%
  Average Response Latency (Avg Rsp Lat): 2200.2 ms
  Eventual Correct, 2 Stimuli: 100.0%
  Eventual Correct, 3 Stimuli: 85.0%
  Eventual Correct, 4 Stimuli: 54.2%
  Eventual Correct, Overall Mean % Correct: 79.7%
  Initial Correct, 3 Stimuli: 48.8%
  Initial Correct, 4 Stimuli: 22.2%
  Initial Correct, Overall Mean % Correct: 49.5%
  Initial correct, 2 Stimuli: 77.5%
RG3487 1.0 mg/kg + scopolamine, individual animals
  Eventual Correct, 2 Stimuli: 100.0%
[5]
  % Completion: 70.4% and 84.7% and 100.0% and 97.1% and 94.2% and 27.7% and 96.4% and 60.3%
  Average Response Latency (Avg Rsp Lat): 2560.1 ms and 2640.7 ms and 1701.5 ms and 1446.7 ms and 1640.8 ms and 2013.9 ms and 2805.9 ms and 2791.8 ms
  Eventual Correct, 3 Stimuli: 100.0% and 70.0% and 80.0% and 90.0%
  Eventual Correct, 4 Stimuli: 80.0% and 33.3% and 50.0% and 70.0% and 16.7%
  Eventual Correct, Overall Mean % Correct: 93.3% and 77.8% and 73.3% and 83.3% and 90.0% and 62.2% and 71.1% and 86.7%
  Initial Correct, 3 Stimuli: 70.0% and 50.0% and 20.0% and 80.0% and 30.0%
  Initial Correct, 4 Stimuli: 30.0% and 11.1% and 10.0% and 50.0% and 0.0% and 16.7%
  Initial Correct, Overall Mean % Correct: 66.7% and 37.0% and 30.0% and 60.0% and 70.0% and 33.3% and 38.9%
  Initial correct, 2 Stimuli: 100.0% and 50.0% and 60.0% and 80.0% and 70.0%
All doses of the study
  Holm-Sidak Post-Hoc, Treatment+Scopolamine differs from Vehicle+Scopolamine: percent correct on initial attempt, 3-stimuli: n.s.
[6]
  Holm-Sidak Post-Hoc, Treatment+Scopolamine differs from Vehicle+Scopolamine: Choice Response Latency: n.s.
  Holm-Sidak Post-Hoc, Treatment+Scopolamine differs from Vehicle+Scopolamine: Percent Task Completed: n.s.
  Holm-Sidak Post-Hoc, Treatment+Scopolamine differs from Vehicle+Scopolamine: percent correct on initial attempt, 2-stimuli: n.s.
  Holm-Sidak Post-Hoc, Treatment+Scopolamine differs from Vehicle+Scopolamine: percent correct on initial attempt, 4 stimuli: n.s.
[7]
  Percent Correct on Initial Attempt (SEM), 2 stimuli: 83.8% (4.6%)
  Percent Correct on Initial Attempt (SEM), 3 stimuli: 43.8% (10.5%)
  Percent Correct on Initial Attempt (SEM), 4 stimuli: 25.0% (7.8%)
[8]
  Percent Correct on Initial Attempt (SEM), 2 stimuli: 90.0% (3.3%)
  Percent Correct on Initial Attempt (SEM), 3 stimuli: 47.5% (8.0%)
  Percent Correct on Initial Attempt (SEM), 4 stimuli: 13.8% (6.5%)
[9]
  Percent Correct on Initial Attempt (SEM), 2 stimuli: 83.8% (7.1%)
  Percent Correct on Initial Attempt (SEM), 3 stimuli: 42.5% (9.0%)
  Percent Correct on Initial Attempt (SEM), 4 stimuli: 20.4% (7.5%)
[10]
  Percent Correct on Initial Attempt (SEM), 2 stimuli: 77.5% (6.2%)
  Percent Correct on Initial Attempt (SEM), 3 stimuli: 48.8% (8.3%)
  Percent Correct on Initial Attempt (SEM), 4 stimuli: 22.2% (5.6%)
Dose range 0.03-1.0 mg/kg i.m.
  effect on scopolamine-induced impairment of eventual accuracy: not efficacious; also recorded: failed to improve eventual accuracy; also recorded: no reversal

Source: article PMC5736175, “Nicotinic alpha 7 receptor agonists EVP-6124 and BMS-933043, attenuate scopolamine-induced deficits in visuo-spatial paired associates learning” (PLoS ONE, 2017)
